Measured values from patent publication US20260072030A1, “RAS BIOSENSORS” (The Regents of the University of California, priority 2022, published 2026).

Experiments:
Type in all cases: cell-based
EGFR = assay: Reversal of EGF-induced RasAR response by EGFR inhibitor; conditions: RasAR + mCherry-KRasWT, 100 ng/ml EGF followed by 200 nM AG1478
Source text: To determine whether RasAR can detect dynamic Ras activity, we co-expressed the sensor with mCherry-KRasWT in COS-7 cells and stimulated the cells with epidermal growth factor (EGF). […] Consistent with previous studies,26 we observed higher C/Y emission ratios in membrane ruffles following EGF stimulation, indicating enhanced KRas activity in these regions. In addition, consistent with the Golgi localization of Ras,26 we observed an increased activity in the Golgi compartment (FIGS. 2A and 8). […] The EGF-stimulated increases in the emission ratio occurred in both the membrane ruffles as well as the Golgi compartment (FIGS. 2B-2C and 8), with slower kinetics observed at the Golgi (FIG. 7A).
Cells were washed three times with Hanks's balanced salt solution (HBSS, Gibco) prior to imaging. Cells were imaged in HBSS in the dark at 37° C. […] Cells were imaged on a Zeiss Axio Observer Z1 microscope equipped with a 20×/0.8 NA objective and a Hamamatsu Flash 4.0 sCMOS camera, controlled using MicroManager 2.0 software. […] All fluorescence images were background-correcting by rolling circle background subtraction in ImageJ using a rolling-ball circle radius of 350 pixels. Cyan/yellow or yellow/cyan emission ratios were then calculated by dividing the CFP channel values by the CYFRET channel values, or the CYFRET channel values by CFP channel values, respectively. […]

ERK = ERK activity reporter (EKAR4) Y/C emission ratio in COS-7 cells; conditions: 10 μM, 3 hr
mCherry-KRasG12C = assay: Ras expression assessed by RFP intensity in COS-7 cells
KRasWT = target: T1, KRasWT (Homo sapiens, UniProt P01116); assay: Live-cell Ras inhibitor assay, COS-7 cells co-expressing RasAR and KRasWT control; conditions: KRasWT controls, 10 μM, 24 hr, vs DMSO
T1 construct: host or cells: COS-7

KRasG12C = target: T2, KRasG12C (Homo sapiens, UniProt P01116, G12C)
T2 construct: expressed in transfected cells; host or cells: COS-7

Src = Src inhibitor pretreatment, EGF-induced HRas activity measured with RasAR sensors in COS-7 cells; conditions: for effect of pretreatment on EGF-induced response, cytosolic RasAR: RasAR + HRasWT, 1 μM inhibitor
Source text: To clarify the regulatory role of Src on HRas at the Golgi, we monitored HRas activity at the Golgi with GA-RasAR in the presence of Src inhibitor PP2.
Phosphorylation of residue Y32 has been implicated in the negative regulation of HRas by Src.31 To verify this mechanism of Src inhibition we co-expressed RasAR with HRasY32F and stimulated with EGF. […] KRas was recently shown to be negatively regulated by Src via dual phosphorylation of Y32 and Y64,28 which negatively impacts multiple steps of the GTPase cycle and impairs binding to effectors. However, the role of Y64 in HRas has not been investigated. To test the hypothesis that phosphorylation of both Y32 and Y64 is involved in Src regulation of HRas, we expressed RasAR and an mCherry-labeled HRas mutant containing Y32F/Y64F mutations and monitored EGF-induced responses in the presence and absence of PP2.
Cells were washed three times with Hanks's balanced salt solution (HBSS, Gibco) prior to imaging. Cells were imaged in HBSS in the dark at 37° C. […] Cells were imaged on a Zeiss Axio Observer Z1 microscope equipped with a 20×/0.8 NA objective and a Hamamatsu Flash 4.0 sCMOS camera, controlled using MicroManager 2.0 software. For time series, images from multiple fields of view were acquired at each time point at 30 sec intervals. RFP was imaged using a 568DF55 excitation filter, a 600DRLP dichroic mirror, and a 653DF95 emission filter. CFP was imaged using a 420DF20 excitation filter, a 455DRLP dichroic mirror, and a 470DF40 emission filter. CYFRET was imaged using a 420DF20 excitation filter, a 455DRLP dichroic mirror, and a 535DF25 emission filter. YFP was imaged using a 495DF10 excitation filter, a 515DRLP dichroic mirror, and a 535DF25 emission filter. Exposure times for each channel were 250-500 ms. All filter sets were controlled by a Lambda 10-2 filter-changer (Sutter Instruments). All fluorescence images were background-correcting by rolling circle background subtraction in ImageJ using a rolling-ball circle radius of 350 pixels. Cyan/yellow or yellow/cyan emission ratios were then calculated by dividing the CFP channel values by the CYFRET channel values, or the CYFRET channel values by CFP channel values, respectively. For the time-series analysis, all values were normalized to the time point prior to drug addition by dividing each value by basal ratio value prior to drug addition. Co-expression experiments were processed using Cell Profiler on background subtracted images and segmented using CYFRET channel images. Individual t½ measurements were acquired using custom script within Matlab.

With `COc1cc2ncnc(Nc3cccc(Cl)c3)c2cc1OC` [AG1478] the “effect on C/Y emission ratio after EGF stimulation” value (EGFR) was “decrease in the C/Y emission ratio”.
In the case of `C=CC(=O)N1CCN(c2ncnc3c(F)c(-c4c(O)cccc4F)c(Cl)cc23)CC1` [ARS1620], the “Cohen's d, effect of treatment on EKAR4 Y/C emission ratio” value (ERK; mCherry-KRasG12C expressing COS-7 cells) is reported as 0.84, the “Cohen's d, effect of treatment on EKAR4 Y/C emission ratio” value (ERK; mCherry-KRasWT expressing COS-7 cells) is reported as 0.02 and the “Cohen's f, RFP intensities across titration treatment groups” value (mCherry-KRasG12C; ARS1620 titration experiment, 24 hr) is reported as 0.06. The “effect on RasAR C/Y emission ratio” value (KRasWT) was “no effect of inhibitor treatment”, the “time over which the C/Y emission ratio continuously declines after treatment” value (KRasG12C; 10 μM inhibitor) was 5 h and the “concentration dependence of C/Y emission ratio” value (KRasG12C; 10 μM, 3 μM, 1 μM, 0.3 μM, 0.1 μM, 24 hr) was “dose-dependent inhibition of KRasG12C”. For the same compound, the “effect on RasAR C/Y emission ratio” value (KRasG12C; 10 μM, 24 hr, vs DMSO) was “higher C/Y emission ratio in KRasG12C-expressing cells treated with DMSO compared with ARS1620 treatment”.
For `CC(C)(C)n1nc(-c2ccc(Cl)cc2)c2c(N)ncnc21` [PP2], the “effect of pretreatment on EGF-induced response at the Golgi” value (Src; GA-RasAR + mCherry-HRas, vs DMSO, n=300 cells each) was “enhanced”, the “effect of pretreatment on EGF-induced response, cytosolic RasAR” value (Src; vs DMSO) was “larger EGF-induced response” and the “effect of pretreatment on EGF-induced response, HRasY32F” value (Src; RasAR + mCherry-HRasY32F, PP2 1 μM, vs control cells) was “enhanced response to EGF”. The “effect of pretreatment on EGF-induced response, HRas Y32F/Y64F” value (Src; RasAR + mCherry-HRasY32F/Y64F, vs control cells, n=180 cells each) was “no significant difference” and the “effect of pretreatment on EGF-induced Ras activity at the plasma membrane” value (Src; pm-RasAR + mCherry-HRasWT, vs DMSO) was “did not affect EGF-induced Ras activity”.
With `COc1cc2ncnc(Nc3ccc(Oc4ccccc4)cc3)c2cc1OC` [SrcI1] the “effect of pretreatment on EGF-induced response, cytosolic RasAR” value (Src; vs DMSO) was “enhanced EGF-induced Ras activity”.
In the case of `C[C@@H]1C[C@@H]([C@H](O)CC2CC(=O)NC(=O)C2)C(=O)[C@@H](C)C1` [cycloheximide], the “effect on KRasG12C expression levels” value (mCherry-KRasG12C; 24-hr timeframe) is reported as “reduced KRasG12C expression levels”, the “Cohen's d, RFP intensities with and without cycloheximide” value (mCherry-KRasG12C; ARS1620 10 μM, cycloheximide 100 μg/ml) is reported as 0.36 and the “Cohen's f, effect of treatment on mCherry-KRasG12C expression by RFP intensity” value (mCherry-KRasG12C; cycloheximide treatment 24 hr) is reported as 1.26. The “effect of inhibiting protein re-synthesis on kinetics of Ras inactivation by ARS1620” value (KRasG12C; ARS1620 10 μM with cycloheximide 100 μg/ml) was “did not speed up the kinetics of Ras inactivation”.
